Reference: US11583217B2, “Neurophysiological data analysis using spatiotemporal parcellation” (Firefly Neuroscience Ltd., priority 2012, dated 2023)

What was measured:
Assay type in all cases: in vivo, human
ADHD subject = assay: BNA pattern similarity from EEG data of ADHD subjects treated with MPH
From the text: The BNA patterns shown in FIGS. 6A-6D are associated subject-specific BNA patterns constructed from EEG data recorded from a particular ADHD subject. The black dots in FIGS. 6A-6D show the locations of the EEG electrodes. The color codes in these BNA patterns are the same as defined above. The subject-specific BNA patterns shown in FIGS. 6A-6B describe the association of the ADHD subject to a group of untreated ADHD subjects, and the BNA patterns shown in FIGS. 6C-6D describe the association of the ADHD subject to a group of ADHD subjects all treated with methylphenidate (MPH). The subject-specific BNA patterns shown in FIGS. 6A and 6C are based on EEG data recorded from the ADHD subject before any treatment, and subject-specific BNA patterns shown in FIGS. 6B and 6D are based on EEG data recorded from the ADHD subject following a treatment with MPH.
The baseline annotated BNA pattern constructed from the group of untreated ADHD subjects, and the baseline annotated BNA pattern constructed from the same group of subjects, but following treatment with MPH are shown in FIGS. 6E and 6F, respectively.
The calculated similarity corresponding to the BNA pattern of FIG. 6A is 0.73, the calculated similarity corresponding to the BNA pattern of FIG. 6B is 0.19, the calculated similarity corresponding to the BNA pattern of FIG. 6C is 0.56, and the calculated similarity corresponding to the BNA pattern of FIG. 6D is 0.6.
The BNA patterns shown in FIGS. 7A-7D were constructed from EEG data recorded from a different ADHD subject, which was also treated with MPH according to the same protocol as described above with respect to the responder subject of FIGS. 6A-6D. The black dots in FIGS. 7A-7D show the locations of the EEG electrodes, and the color codes in these BNA patterns is the same as defined above. Thus, the subject-specific BNA patterns shown in FIGS. 7A-7B describe the association of the ADHD subject to a group of untreated ADHD subjects, and the BNA patterns shown in FIGS. 7C-7D describe the association of the ADHD subject to a group of ADHD subjects all treated with methylphenidate (MPH). The subject-specific BNA patterns shown in FIGS. 7A and 7C are based on EEG data recorded from the ADHD subject before any treatment, and subject-specific BNA patterns shown in FIGS. 7B and 7D are based on EEG data recorded from the ADHD subject following a treatment with MPH.
The calculated similarity corresponding to the BNA pattern of FIG. 7A is 0, the calculated similarity corresponding to the BNA pattern of FIG. 7B is 0, the calculated similarity corresponding to the BNA pattern of FIG. 7C is 0.06, and the calculated similarity corresponding to the BNA pattern of FIG. 7D is 0.

groups of subjects = assay: Group BNA patterns from EEG data during working memory test (cue/probe); conditions: vs placebo
From the text: FIGS. 10A-10H show group BNA patterns constructed from EEG data recorded from two groups of subjects during a working memory test. The black dots in FIGS. 10A-10H show the locations of the EEG electrodes, and the color codes in these BNA patterns is the same as defined above. During the test, each subject of the group was asked to memorize an image of a human face (referred to as the “cue”). Two seconds later, the subject was again presented with an image of a human face (referred to as the “probe”) and was asked to determine whether the probe matches the cue.
FIGS. 10A and 10B are group BNA patterns constructed following treatment with a placebo (referred to below as placebo A), and FIGS. 10C and 10D are group BNA patterns constructed following treatment with a Scopolamine. The BNA patterns of the second group are shown in FIGS. 10E-10H, where FIGS. 10E and 10F are group BNA patterns constructed following treatment with a placebo (referred to below as placebo B), and FIGS. 10G and 10H are BNA patterns constructed following treatment with a Ketamine.
The BNA pattern of FIGS. 10A, 10C, 10E and 10G were constructed from the data acquired during the time at which the cue was presented and are recognized by the present inventor as containing information pertaining to the memorization process in the brain (also known in the literature as “encoding”). The BNA patterns of FIGS. 10B, 10D, 10F and 10H were constructed from the data acquired during the time at which the probe was presented, and are recognized by the present inventor as containing information pertaining to the retrieval process in the brain. It is noted that the BNA patterns of FIGS. 10A-10H describe differentiating activity networks. Thus, for example, the BNA pattern of FIG. 10A describes the brain activity during […] that most differentiated between placebo A and Scopolamine, and the BNA pattern of FIG. 10B describes the brain activity during […] that most differentiated between placebo B and Ketamine.

[1] = system: healthy volunteer subjects; assay: BNA pattern similarity from EEG data of healthy volunteers during attention oddball task, scopolamine vs placebo
From the text: FIGS. 8A-8D show associated subject-specific BNA patterns constructed from EEG data recorded from two healthy volunteer subjects. The black dots in FIGS. 8A-8D show the locations of the EEG electrodes, and the color codes in these BNA patterns are the same as defined above. The subject-specific BNA patterns shown in FIGS. 8A-8D describe the association of the subjects to a group of healthy subjects following treatment with a placebo drug and while performing an attention task related oddball task.
FIGS. 8A and 8C are subject-specific BNA patterns constructed from EEG data collected from a first subject (FIG. 8A) and a second subject (FIG. 8C) following treatment with a placebo, and FIGS. 8B and 8D are subject-specific BNA patterns constructed from EEG data collected from the first subject (FIG. 8B) and the second subject (FIG. 8D) following treatment with a scopolamine drug. Scopolamine is an anticholinergic drug with inhibitory effect on M2-cholinergic receptors of excited type. It has an inhibitory effect on the cerebral cortex, typically inducing slight-anesthetic effect.
(§1) The calculated similarities are 0.937, 0.079, 1.0 and 0.94, respectively. It is recognized by the present inventors that these similarity values indicate that the responsivity to scopolamine is high for the first subject (FIGS. 8A and 8B) and low for the second subject (FIGS. 8C and 8D).

[2] = system: healthy volunteer subjects; assay: Clinical observation of behavioral endpoint following scopolamine; conditions: following treatment with scopolamine
From the text: as §1

healthy volunteers = assay: Scopolamine induced cognitive impairment model, ΔBNA scores in Auditory Oddball Task; conditions: scopolamine 0.4 mg, Novel stimulus, connectivity score; only 2 patients on placebo
From the text: The task chosen for this study was the Auditory Oddball Task, but other tasks are not excluded from the scope of the present invention. FIG. 21 is a schematic representation of an Auditory Oddball Task used in this study. The task included 600 repetitive 1000 ms auditory stimulations of which 80% were 2000 Hz stimuli (Frequent—blue circles), 10% were 1000 Hz stimuli requiring a motor response (Target—red circles) and 10% were rare non-targets composed of various sounds (Novel—yellow star). The stimuli were separated by 1500 ms intervals. The sound was delivered through a headset at a sound pressure level of 70 dB.
• Repeatability: Within-subject BNA score repeatability was assessed by computing the Intraclass Correlation. • Normality Tests: Normality of ΔBNA distributions was evaluated using the Kolmogorov-Smirnov test of normality (p≥0.200) and validated with corresponding Q-Q plots. • SEM Computation: The change over time in the BNA Scores of a subject/patient from baseline (ΔBNA) is evaluated in terms of standard error of measurements (SEM) against the Normative Database to determine likelihood of true change.
A pharmacological model study included 13 healthy volunteers of both genders, Aged 18-45. […] The second and third sessions were at random order, double blind. ΔBNA Score values (Baseline—Placebo and Baseline—Drug) were evaluated against SEM values. […]

SMILES	responsiveness to treatment inferred from similarity values (ADHD subject; ADHD subject of FIGS. 6A-6D)	responsiveness to treatment inferred from similarity values (ADHD subject; ADHD subject of FIGS. 7A-7D)	BNA pattern similarity to baseline BNA pattern of untreated ADHD group (ADHD subject; different ADHD subject, following MPH (FIG. 7B), 0 before treatment)	BNA pattern similarity to baseline BNA pattern of MPH-treated ADHD group (ADHD subject; different ADHD subject, following MPH (FIG. 7D), 0.06 before treatment)	BNA pattern similarity to baseline BNA pattern of untreated ADHD group (ADHD subject; responder ADHD subject, following single dose MPH (FIG. 6B), 0.73 before treatment)	BNA pattern similarity to baseline BNA pattern of MPH-treated ADHD group (ADHD subject; responder ADHD subject, following single dose MPH (FIG. 6D), 0.56 before treatment)	central and frontal activation in the group BNA pattern (groups of subjects)	fronto-parietal part of the group BNA pattern (groups of subjects)	right lateralization in the group BNA pattern (groups of subjects)	responsivity to scopolamine ([1]; first subject (FIGS. 8A and 8B))	BNA pattern similarity to baseline BNA pattern of placebo-treated healthy group ([1]; first subject, following scopolamine (FIG. 8B), 0.937 after placebo)	responsivity to scopolamine ([1]; second subject (FIGS. 8C and 8D))	BNA pattern similarity to baseline BNA pattern of placebo-treated healthy group ([1]; second subject, following scopolamine (FIG. 8D), 1.0 after placebo)	decrease in behavioral endpoint ([2]; first subject)	change in behavioral endpoint ([2]; second subject)	patients with post-treatment BNA scores more than 2 SEM lower than the baseline score (healthy volunteers)
COC(=O)C(c1ccccc1)C1CCCCN1 (stereo not drawn) [MPH, methylphenidate]	responsive to the treatment	not responsive to the treatment	0	0	0.19	0.6										
CNC1(c2ccccc2Cl)CCCCC1=O (stereo not drawn) [ketamine]							increased central and frontal activation	No significant change	decreased right lateralization							
CN1[C@@H]2C[C@@H](OC(=O)[C@H](CO)c3ccccc3)C[C@H]1[C@@H]1O[C@@H]12 [scopolamine]							extensive compensatory central and frontal activation	low connectivity between frontal and parietal regions		high	0.079	low	0.94	70%	no change	Eight out of 13
